Measurements reported in patent publication US8012956B2, “Tropane compounds” (Exelixis, Inc., priority 2007, dated 2011).

The molecules below were run against HSP90 (Homo sapiens, UniProt P07900) (assay: HSP90 inhibition (HSP90 IC50)).
Assay type: biochemical

IC50	SMILES
2000 to 10000 nM	COc1cccc(C(=O)N[C@H]2C[C@H]3CC[C@@H](C2)N3c2ccc(C(=O)Nc3cc(C)cc(C)c3)cn2)c1C [N-(3,5-dimethylphenyl)-6-[3-endo-({[2-methyl-3-(methyloxy)phenyl]carbonyl}amino)-8-azabicyclo[3.2.1]oct-8-yl]pyridine-3-carboxamide]
2000 to 10000 nM	COc1cccc(C(=O)N[C@H]2C[C@H]3CC[C@@H](C2)N3c2ccc(C(=O)Nc3cccc(Cl)c3)cn2)c1C [N-(3-chlorophenyl)-6-[3-endo-({[2-methyl-3-(methyloxy)phenyl]carbonyl)amino)-8-azabicyclo[3.2.1]oct-8-yl]pyridine-3-carboxamide]
1000 to 2000 nM	COc1cccc(C(=O)N[C@H]2C[C@H]3CC[C@@H](C2)N3c2ccc(C(=O)NCCC(C)C)cn2)c1C [N-(3-methylbutyl)-6-[3-endo-({[2-methyl-3-(methyloxy)phenyl]carbonyl}amino)-8-azabicyclo[3.2.1]oct-8-yl]pyridine-3-carboxamide]
1000 to 2000 nM	COc1cccc(C(=O)N[C@H]2C[C@H]3CC[C@@H](C2)N3c2ccc(C(=O)Nc3ccc(F)cc3)cn2)c1C [N-(4-fluorophenyl)-6-[3-endo-({[2-methyl-3-(methyloxy)phenyl]carbonyl}amino)-8-azabicyclo[3.2.1]oct-8-yl]pyridine-3-carboxamide]
500 to 999 nM	COc1cccc(C(=O)N[C@H]2C[C@H]3CC[C@@H](C2)N3c2ccc(C(=O)Nc3ccc(OCCN(C)C)cc3)cn2)c1C [N-(4-{[2-(dimethylamino)ethyl]oxy}phenyl)-6-[3-endo-({[2-methyl-3-(methyloxy)phenyl]carbonyl}amino)-8-azabicyclo[3.2.1]oct-8-yl]pyridine-3-carboxamide]
< 500 nM	CN1CCN(c2ccc(CNC(=O)c3ccc(N4[C@@H]5CC[C@H]4C[C@@H](NC(=O)c4ccc(C(N)=O)cc4)C5)nc3)cc2)CC1 [N-(8-{5-[({[4-(4-methylpiperazin-1-yl)phenyl]methyl}amino)carbonyl]pyridin-2-yl}-8-azabicyclo[3.2.1]oct-3-endo-yl)benzene-1,4-dicarboxamide]
500 to 999 nM	COc1cccc(C(=O)N[C@H]2C[C@H]3CC[C@@H](C2)N3c2ccc(C(=O)NCC3CC3)cn2)c1C [N-(cyclopropylmethyl)-6-[3-endo-({[2-methyl-3-(methyloxy)phenyl]carbonyl}amino)-8-azabicyclo[3.2.1]oct-8-yl]pyridine-3-carboxamide]
< 500 nM	COc1cccc(C(=O)N[C@H]2C[C@H]3CC[C@@H](C2)N3c2ccc(C(=O)NCc3ccco3)cn2)c1C [N-(furan-2-ylmethyl)-6-[3-endo-({[2-methyl-3-(methyloxy)phenyl]carbonyl}amino)-8-azabicyclo[3.2.1]oct-8-yl]pyridine-3-carboxamide]
2000 to 10000 nM	COc1cccc(C(=O)NC2CC3CCC(C2)N3c2ccc(C(=O)NC(C)c3c(F)cc(C4CCNCC4)cc3F)cn2)c1C (stereo not drawn) [N-[1-(2,6-difluoro-4-piperidin-4-ylphenyl)ethyl]-6-[3-endo-({[2-methyl-3-(methyloxy)phenyl]carbonyl}amino)-8-azabicyclo[3.2.1]oct-8-yl]pyridine-3-carboxamide]
< 500 nM	COc1cccc(C(=O)NC2CC3CCC(C2)N3c2ccc(C(=O)NC(C)c3ccc(C4CCNCC4)cc3F)cn2)c1C (stereo not drawn) [N-[1-(2-fluoro-4-piperidin-4-ylphenyl)ethyl]-6-[3-endo-({[2-methyl-3-(methyloxy)phenyl]carbonyl}amino)-8-azabicyclo[3.2.1]oct-8-yl]pyridine-3-carboxamide]
2000 to 10000 nM	COc1cccc(C(=O)NC2CC3CCC(C2)N3c2ccc(C(=O)NC(C)c3ccc(Br)cc3F)cn2)c1C (stereo not drawn) [N-[1-(4-bromo-2-fluorophenyl)ethyl]-6-[3-endo-({[2-methyl-3-(methyloxy)phenyl]carbonyl}amino)-8-azabicyclo[3.2.1]oct-8-yl]pyridine-3-carboxamide]
< 500 nM	COc1cccc(C(=O)NC2CC3CCC(C2)N3c2ccc(C(=O)NC(C)c3ccc(Cl)cc3)cn2)c1C (stereo not drawn) [N-[1-(4-chlorophenyl)ethyl]-6-[3-endo-({[2-methyl-3-(methyloxy)phenyl]carbonyl}amino)-8-azabicyclo[3.2.1]oct-8-yl]pyridine-3-carboxamide]
500 to 999 nM	CCN(CC)CCNC(=O)c1ccc(N2[C@@H]3CC[C@H]2C[C@@H](NC(=O)c2cccc(OC)c2C)C3)nc1 [N-[2-(diethylamino)ethyl]-6-[3-endo-({[2-methyl-3-(methyloxy)phenyl]carbonyl}amino)-8-azabicyclo[3.2.1]oct-8-yl]pyridine-3-carboxamide]
1000 to 2000 nM	COc1cccc(C(=O)N[C@H]2C[C@H]3CC[C@@H](C2)N3c2ccc(C(=O)NCCN(C)C)cn2)c1C [N-[2-(dimethylamino)ethyl]-6-[3-endo-({[2-methyl-3-(methyloxy)phenyl]carbonyl}amino)-8-azabicyclo[3.2.1]oct-8-yl]pyridine-3-carboxamide]
< 500 nM	COc1cccc(C(=O)N[C@H]2C[C@H]3CC[C@@H](C2)N3c2ccc(C(=O)NCCCn3ccnc3)cn2)c1C [N-[3-(1H-imidazol-1-yl)propyl]-6-[3-endo-({[2-methyl-3-(methyloxy)phenyl]carbonyl}amino)-8-azabicyclo[3.2.1]oct-8-yl]pyridine-3-carboxamide]
500 to 999 nM	CCN(CC)CCCNC(=O)c1ccc(N2[C@@H]3CC[C@H]2C[C@@H](NC(=O)c2cccc(OC)c2C)C3)nc1 [N-[3-(diethylamino)propyl]-6-[3-endo-({[2-methyl-3-(methyloxy)phenyl]carbonyl}amino)-8-azabicyclo[3.2.1]oct-8-yl]pyridine-3-carboxamide]
500 to 999 nM	COc1cccc(C(=O)N[C@H]2C[C@H]3CC[C@@H](C2)N3c2ccc(C(=O)NCCCN(C)C)cn2)c1C [N-[3-(dimethylamino)propyl]-6-[3-endo-({[2-methyl-3-(methyloxy)phenyl]carbonyl}amino)-8-azabicyclo[3.2.1]oct-8-yl]pyridine-3-carboxamide]
1000 to 2000 nM	CCOCCCNC(=O)c1ccc(N2[C@@H]3CC[C@H]2C[C@@H](NC(=O)c2cccc(OC)c2C)C3)nc1 [N-[3-(ethyloxy)propyl]-6-[3-endo-({[2-methyl-3-(methyloxy)phenyl]carbonyl}amino)-8-azabicyclo[3.2.1]oct-8-yl]pyridine-3-carboxamide]
1000 to 2000 nM	COc1cccc(C(=O)N[C@H]2C[C@H]3CC[C@@H](C2)N3c2ccc(C(=O)NCCCC(OC)OC)cn2)c1C [N-[4,4-bis(methyloxy)butyl]-6-[3-endo-({[2-methyl-3-(methyloxy)phenyl]carbonyl}amino)-8-azabicyclo[3.2.1]oct-8-yl]pyridine-3-carboxamide]
< 500 nM	CC(=O)c1ccc(N2[C@@H]3CC[C@H]2C[C@@H](NC(=O)c2cc(C)c(C(N)=O)cc2C)C3)nc1 [N-[8-(5-acetylpyridin-2-yl)-8-azabicyclo[3.2.1]oct-3-endo-yl]-2,5-dimethylbenzene-1,4-dicarboxamide]
< 500 nM	CCCCCNc1cc(C(=O)N[C@H]2C[C@H]3CC[C@@H](C2)N3c2ccc(C(C)=O)cn2)c(C)cc1C(N)=O [N-[8-(5-acetylpyridin-2-yl)-8-azabicyclo[3.2.1]oct-3-endo-yl]-2-methyl-5-(pentylamino)benzene-1,4-dicarboxamide]
